Reference: publication PMC9236248, “Ucl fimbriae regulation and glycan receptor specificity contribute to gut colonisation by extra-intestinal pathogenic Escherichia coli” (PLoS Pathogens, 2022)
Where “and” joins values, the source holds several entries; their conditions need not be identical. Identical values can stand only once.

Tests used:
UcaD^LD = UcaD^LD (Proteus mirabilis, UniProt B4EV65); assay: Soaking of pre-formed UcaD^LD crystals with monosaccharides (X-ray crystallography); type: binding, P. mirabilis PM54; details: 0.1-0.2 M monosaccharide, 48 hours soak
Chain of UcaD^LD (B4EV65 entry or part of it): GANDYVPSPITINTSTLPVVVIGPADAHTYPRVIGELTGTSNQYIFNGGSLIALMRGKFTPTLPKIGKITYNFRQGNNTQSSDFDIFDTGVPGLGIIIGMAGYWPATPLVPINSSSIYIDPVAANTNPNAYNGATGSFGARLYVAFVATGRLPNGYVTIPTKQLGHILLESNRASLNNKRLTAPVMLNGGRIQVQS
Procedure: Crystals were produced by the hanging drop method. Structural analyses were carried out using DALI [22], and PyMOL (http://www.pymol.org). Figures were generated using PyMOL. The UclD^LD structure was refined to final Rwork/Rfree values of 24.8%/30.6%; the UcaD^LD structure was refined to final Rwork/Rfree values of 16.9%/19.2%, respectively (Table A in S1 Text). For UcaD^LD:monosaccharide complexes, coordinates and structure factors have been deposited in the PDB with IDs 7MZQ (Fuc complex), 7MZR (Glc complex), and 7MZS (Gal complex).
157 flash-cooling in liquid nitrogen. X-ray diffraction data were collected from a single crystal at the
158 Australian Synchrotron MX2 beamline, using a wavelength of 0.9537 Å. Data collection was
159 performed using Blu-Ice software, indexed and integrated using MOSFLM and scaled with
160 AIMLESS within the CCP4 suite. The structure was solved by molecular replacement using
161 PHASER [23] and UclDLD as the template. The model was refined using Phenix and structure
The structure was refined to final Rwork/Rfree values
163 of 16.9 %/19.2 %, respectively (Table A in S1 Text). The final UcaDLD model contains residues 21-
165 disordered or flexible conformation in the crystals. Coordinates and structure factors have been
166 deposited in the PDB with ID 7MZO.
167 UcaDLD:monosaccharide complexes: Pre-formed UcaDLD and UclDLD crystals were soaked with
168 0.1-0.2 M of the monosaccharides Fuc, Glc, Gal, GlcNAc, GalNAc or Neu5Ac for 48 hours in the
169 crystallisation solution (0.1 M sodium citrate buffer pH 4.5-5.5, 2-3 M NaCl). The crystals were
170 cryoprotected in Paratone-N and flash-cooled at 100 K. X-ray diffraction data were collected from
171 single crystals on the MX2 beamline at the Australian Synchrotron, using a wavelength of 0.9537 Å.
172 The data-sets was processed using either MOSFLM (Gal complex), or XDS (Fuc and Glc complexes)
173 [27] and scaled using AIMLESS in the CCP4 suite. The structures were solved by molecular
174 replacement using PHASER [23] and ligand-free UcaDLD as the template. The models were refined
175 using Phenix, and structure validations were performed using MolProbity. Coordinates and
176 structure factors have been deposited in the PDB with IDs 7MZQ (Fuc complex), 7MZR (Glc
177 complex), and 7MZS (Gal complex).

UclD^LD [1] = target: T1, UclD^LD (Escherichia coli, UniProt Q8GA71); assay: SPR analysis of glycans on immobilized UclD lectin domain; parameters: species or system E. coli strain F11; details: single cycle kinetics, read-out: KD, binding affinity to UclD^LD determined by SPR
T1 sequence (Q8GA71 21-221): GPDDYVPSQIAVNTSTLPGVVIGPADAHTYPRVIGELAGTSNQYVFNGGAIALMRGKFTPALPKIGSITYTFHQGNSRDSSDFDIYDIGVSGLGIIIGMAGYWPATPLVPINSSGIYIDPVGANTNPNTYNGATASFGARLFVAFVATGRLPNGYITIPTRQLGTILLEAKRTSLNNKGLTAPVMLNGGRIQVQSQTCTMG
Procedure: 126 described with minor modifications. Briefly, UclD and UcaD were immobilized onto flow cells
127 of a CM5 sensor chip using amine coupling at 20 µg/mL in 10 mM sodium acetate pH 4.0 and at a
128 flow rate of 5 µL/min for 10 minutes. Glycans were chosen based on positive glycan array results for
129 each of the proteins with each glycan run across a dilution range starting at a maximum concentration
130 of 100 µM and minimum concentrations tested being 1.6 nM using single cycle kinetics. Results were
131 analysed using the Biacore T200 evaluation software.
132 Crystallization and crystal structure determination.
133 UclDLD: UclDLD crystals were produced using the hanging drop method, with drops containing 1 µL
134 of protein (10 mg/mL) and 1 µL of well solution (20-25% w/v PEG 3350, 0.1 M Bis-Tris propane
135 pH 6.5, 0.2 M sodium iodide). The crystals appeared within 1-5 days. The crystals were cryoprotected
136 in glycerol (80% well solution and 20% (v/v) glycerol) before flash-cooling in liquid nitrogen. X-ray
137 diffraction data were collected from a single crystal at the Australian Synchrotron MX1 beamline,
138 using a wavelength of 0.9537 Å. Data collection was performed using Blu -Ice software, indexed
139 and integrated using MOSFLM and scaled with AIMLESS within the CCP4 suite. Molecular […]
142 we determined the UclDLD structure by SAD phasing using the CRANK2 [19] pipeline of the CCP4 […]

UclD = details: galactose at 1 mM alone
OxyR-6xHis = target: T2, OxyR-6xHis (UniProt P0ACQ4); assay: EMSA
T2 sequence: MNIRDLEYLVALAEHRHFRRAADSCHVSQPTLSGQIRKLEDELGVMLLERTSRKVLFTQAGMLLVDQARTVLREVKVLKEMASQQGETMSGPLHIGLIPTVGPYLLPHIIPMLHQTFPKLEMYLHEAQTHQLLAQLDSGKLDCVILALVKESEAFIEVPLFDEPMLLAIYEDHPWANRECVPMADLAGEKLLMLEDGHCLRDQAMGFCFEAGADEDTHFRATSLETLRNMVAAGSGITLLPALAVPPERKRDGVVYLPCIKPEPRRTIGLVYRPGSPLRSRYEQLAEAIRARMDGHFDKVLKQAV

UclD^LD [2] = target: T1, UclD^LD; assay: Glycan array analysis (358 glycan structures), UclD; details: yes/no binding

| Compound | Monosaccharide electron density / binding in soaked UcaD^LD crystals (UcaD^LD) | other results |
| --- | --- | --- |
| C[C@H](O)[C@@H](O)[C@@H](O)[C@H](O)C=O [Fuc, fucose] | Clear monosaccharide electron density was observed | – |
| OC[C@H]1OC(O)[C@H](O)[C@@H](O)[C@@H]1O (some centres unmarked) [Glc, glucose] | Clear monosaccharide electron density was observed | – |
| CC(=O)N[C@@H]1[C@@H](O)[C@H](O)[C@@H](CO)O[C@H]1O [GlcNAc, N-acetylglucosamine] | not | – |
| CC(=O)N[C@H]1[C@H]([C@H](O)[C@H](O)CO)OC(O)(C(=O)O)C[C@@H]1O (some centres unmarked) [Neu5Ac, N-acetylneuraminic acid] | not | – |
| CC(=O)N[C@H]1[C@H]([C@H](O)[C@H](O)CO)O[C@@](O[C@H]2[C@@H](O)[C@@H](CO)O[C@@H](O[C@@H]([C@H](O[C@@H]3O[C@@H](C)[C@@H](O)[C@@H](O)[C@@H]3O)[C@H](C=O)NC(C)=O)[C@H](O)CO)[C@@H]2O)(C(=O)O)C[C@@H]1O [SialylLewis X, Neu5Acα2-3Galβ1-4(Fucα1–3)GlcNAc] | – | Kd (UclD^LD [1]): 2.52 µM |
| O=C[C@H](O)[C@@H](O)[C@@H](O)[C@H](O)CO [galactose] | Clear monosaccharide electron density was observed | Response 15 seconds after injection-B (UclD): 6.3 RU and ~ 6.3 RU |
| CO[C@@H]1O[C@H](CO)[C@H](O)[C@H](O)[C@H]1O [β-methyl-galactose] | did not observe binding | – |
| AATAGGTCGCTCATTTCAGGGTAAAGCATATCTTTTGTCATTACCAACACAATAAATATGGTTTTTGATCGTTTTTCCCGATCGTTTTAGCAATCATGATATGTGCAATCTATCATACGCTGGTTATCGATCGGTAAAAACATTTTGAAAATGATTGTTTTGTTGGGGATGATTGCTGAACAAATGATCAATACTGGAATTAAACAGGAATTCATTTTATGAAAATAAAAGTTATAGCATTGGCTACATTTGTTTCTGCTG (double strand) [Cy3-Pucl-78T] | – | binding (OxyR-6xHis): binds |
| asialo-GM1 | – | Binding to UclD^LD on glycan array (UclD^LD [2]): did not identify interactions |
| lactosyl ceramide | – | Binding to UclD^LD on glycan array (UclD^LD [2]): did not identify interactions |
